Measurements from paper PMC8159961, “Exploring protein hotspots by optimized fragment pharmacophores” (Nature Communications, 2021).

How the values were obtained:
human 5-HT1A receptor = target: T1, human 5-HT1A receptor (Homo sapiens, UniProt P08908); test: GPCR radioligand binding assay, [3H]-8-OH-DPAT displacement, HEK293 membranes; details: for %inh 5-HT1A average: average of exp_1 and exp_2; for %inh 5-HT1A corrected*: average, values below 0 and above 100% were set as 0 and 100; for %inh 5-HT1A exp_1: replicate exp_1; for %inh 5-HT1A exp_2: replicate exp_2; for 5-HT1A % Inhibition by plate position: 10 µM
T1 construct: expressed in transfected cells
T1 sequence (P08908 1-422): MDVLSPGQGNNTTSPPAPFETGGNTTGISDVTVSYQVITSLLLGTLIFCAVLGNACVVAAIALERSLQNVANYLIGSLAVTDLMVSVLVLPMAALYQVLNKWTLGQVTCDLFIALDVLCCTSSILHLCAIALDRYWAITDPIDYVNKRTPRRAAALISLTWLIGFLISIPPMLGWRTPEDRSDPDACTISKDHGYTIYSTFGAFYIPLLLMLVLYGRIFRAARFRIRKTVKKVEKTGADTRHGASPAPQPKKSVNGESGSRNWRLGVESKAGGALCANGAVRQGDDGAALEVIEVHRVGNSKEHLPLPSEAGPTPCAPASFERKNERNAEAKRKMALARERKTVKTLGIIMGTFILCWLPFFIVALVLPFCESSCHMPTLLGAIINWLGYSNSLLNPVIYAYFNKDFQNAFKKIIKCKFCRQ

human 5-HT6 receptor = target: T2, human 5-HT6 receptor (Homo sapiens, UniProt P50406); test: GPCR radioligand binding assay, [3H]-LSD displacement, HEK293 membranes; details: for 5-HT6 % Inhibition by plate position: 10 µM; for %inh 5-HT6 average: average of exp_1 and exp_2; for %inh 5-HT6 corrected*: average, values below 0 and above 100% were set as 0 and 100; for %inh 5-HT6 exp_1: replicate exp_1; for %inh 5-HT6 exp_2: replicate exp_2
T2 construct: expressed in transfected cells
T2 sequence (P50406 whole entry): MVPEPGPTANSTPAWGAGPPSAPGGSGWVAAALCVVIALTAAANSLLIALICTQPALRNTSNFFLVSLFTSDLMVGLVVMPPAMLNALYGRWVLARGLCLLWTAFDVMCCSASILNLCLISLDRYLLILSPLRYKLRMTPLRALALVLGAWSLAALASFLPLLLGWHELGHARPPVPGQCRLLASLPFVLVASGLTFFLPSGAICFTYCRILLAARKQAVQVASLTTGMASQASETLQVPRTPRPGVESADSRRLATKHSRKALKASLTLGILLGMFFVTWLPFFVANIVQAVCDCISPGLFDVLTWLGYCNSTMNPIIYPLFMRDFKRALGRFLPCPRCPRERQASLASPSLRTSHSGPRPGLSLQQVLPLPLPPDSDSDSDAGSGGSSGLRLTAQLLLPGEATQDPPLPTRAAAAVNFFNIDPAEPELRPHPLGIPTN

human 5-HT7b receptor = target: T3, human 5-HT7b receptor (Homo sapiens, UniProt P34969); test: GPCR radioligand binding assay, [3H]-5-CT displacement, HEK293 membranes; details: for 5-HT7 % Inhibition by plate position: 10 µM; for %inh 5-HT7 exp_1: replicate exp_1; for %inh 5-HT7 exp_2: replicate exp_2; for %inh 5-HT7 average: average of exp_1 and exp_2
T3 construct: expressed in transfected cells
T3 sequence (P34969 1-432): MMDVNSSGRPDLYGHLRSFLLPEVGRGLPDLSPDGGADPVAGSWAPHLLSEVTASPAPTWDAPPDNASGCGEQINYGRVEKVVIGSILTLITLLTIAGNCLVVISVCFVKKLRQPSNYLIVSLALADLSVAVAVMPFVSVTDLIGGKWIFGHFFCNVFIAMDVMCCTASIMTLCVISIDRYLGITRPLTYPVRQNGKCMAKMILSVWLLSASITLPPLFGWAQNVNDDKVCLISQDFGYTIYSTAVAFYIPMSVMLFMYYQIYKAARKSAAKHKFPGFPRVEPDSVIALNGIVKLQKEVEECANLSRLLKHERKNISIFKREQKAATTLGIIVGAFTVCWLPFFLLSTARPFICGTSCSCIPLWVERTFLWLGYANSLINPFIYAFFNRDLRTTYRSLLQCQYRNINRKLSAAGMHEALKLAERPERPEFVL

Row | SMILES | %inh 5-HT1A average (human 5-HT1A receptor) | %inh 5-HT1A corrected* (human 5-HT1A receptor) | %inh 5-HT1A exp_1 (human 5-HT1A receptor) | %inh 5-HT1A exp_2 (human 5-HT1A receptor) | 5-HT6 % Inhibition by plate position (human 5-HT6 receptor) | %inh 5-HT6 average (human 5-HT6 receptor) | %inh 5-HT6 corrected* (human 5-HT6 receptor) | %inh 5-HT6 exp_1 (human 5-HT6 receptor) | %inh 5-HT6 exp_2 (human 5-HT6 receptor) | 5-HT7 % Inhibition by plate position (human 5-HT7b receptor) | %inh 5-HT7 exp_1 (human 5-HT7b receptor) | %inh 5-HT7 exp_2 (human 5-HT7b receptor) | 5-HT1A % Inhibition by plate position (human 5-HT1A receptor) | %inh 5-HT7 average (human 5-HT7b receptor)
1 | c1ccc2c(N3CCNCC3)ccnc2c1 [C4] | 81% | 81% | 78% | 83% | 72% | 72% | 72% | 71% | 72% | 16% | 17% | 15% | – | –
2 | O=c1ccc2c([nH]1)CCCC2 [C5] | -1.35% | – | -18% | 15% | 46% | 46% | 46% | 39% | 53% | 1% | 0.605% | 1.43% | 0% | –
3 | CC1(C)OC(=O)c2cc(Br)c(O)cc2O1 [C6] | -0.191% | – | -7.5% | 7% | 56% | 56% | 56% | 67% | 45% | 0.891% | 1.78% | 0% | 0% | –
4 | CC(=O)c1ccc2c(c1)CCCN2 [C7] | 2.29% | 2.29% | -2% | 6.6% | 9% | 9% | 9% | 10% | 8% | 0% | -14% | -18% | – | -16%
5 | CC(=O)c1ccc2c(c1)CNCC2 [C8] | -13% | – | -22% | -3.26% | 2.55% | 2.55% | 2.55% | 6% | -1% | 4% | 8% | 0% | 0% | –
6 | O=C1NC2(CCCC2)Nc2ccccc21 [C9] | -0.0168% | – | 4.43% | -4.46% | 44% | 44% | 44% | 46% | 41% | 5% | -2.47% | 13% | 0% | –
7 | O=c1[nH]c2c(s1)CCC2 [C10] | -4% | – | 2.56% | -11% | 42% | 42% | 42% | 44% | 39% | 0.592% | -6.56% | 8% | 0% | –
8 | C1=C[C@H]2O[C@@H]1c1ccccc12 [C11] | -11% | – | -11% | -11% | 46% | 46% | 46% | 42% | 50% | 0% | -5.66% | -11% | 0% | -8%
9 | N#Cc1ccc2ncsc2c1 [C12] | 5.41% | 5.41% | 11% | -0.546% | 35% | 35% | 35% | 39% | 32% | 0% | -6% | -8.5% | – | -7%
10 | Nc1ccc(SC(F)F)cc1 [D1] | -16% | – | -6.6% | -25% | 45% | 45% | 45% | 52% | 38% | 8% | 5.58% | 10% | 0% | –
11 | CCc1ccc(NC2=NCCCS2)cc1 [D2] | 29% | 29% | 30% | 27% | 16% | 16% | 16% | 19% | 13% | 6% | 12% | 0.291% | – | –
12 | CCn1cnc2ccccc21 [D4] | -8% | – | -16% | 0% | 23% | 23% | 23% | 23% | 23% | 0% | 1.55% | -12% | 0% | -5.34%
13 | CCCN1C(=O)CC(=O)NC1=S [D5] | -8.49% | – | -9% | -8% | 49% | 49% | 49% | 57% | 41% | 10% | 13% | 6% | 0% | –
14 | Cc1ccc(C)n1Cc1ccccc1Cl [D6] | 6.37% | 6.37% | 4.33% | 8% | 26% | 26% | 26% | 30% | 23% | 0% | -2.55% | -8.54% | – | -5.55%
15 | Cc1ccc(-c2ccc(O)cc2)cc1 [D7] | -20% | – | -25% | -14% | 45% | 45% | 45% | 52% | 38% | 0% | 2.16% | -17% | 0% | -7.45%
16 | c1ccc2oc(C3CCCNC3)nc2c1 (centres unmarked) [D10] | 78% | 78% | 77% | 80% | 25% | 25% | 25% | 22% | 28% | 0% | -4% | 3.22% | – | -0.305%
17 | COc1ccc(CN2CCNCC2)cc1F [D11] | -7% | – | 10% | -23% | 41% | 41% | 41% | 45% | 38% | 0% | -5% | 4.58% | 0% | -0.31%
18 | O=C(c1ccncc1)N1CCNCC1 [E2] | 3.69% | 3.69% | 13% | -6% | 24% | 24% | 24% | 15% | 33% | 3.34% | 1.81% | 5% | – | –
19 | CC1C(=O)NC(=O)N1c1ccc(Cl)cc1 (centres unmarked) [E3] | -4% | – | 5% | -13% | 43% | 43% | 43% | 41% | 44% | 17% | 19% | 14% | 0% | –
